In US8895761B2, “4-phenylpyrane-3,5-diones, 4-phenylthiopyrane-3,5-diones and 2-phenylcyclohexane-1,3,5-triones as herbicides” (Syngenta Limited, priority 2007, dated 2014):

What was measured:
Format in all cases: in vivo
[1] = system: Avena fatua (AVEFA); assay: Pre-emergence herbicidal glasshouse test, Avena fatua; conditions: rate 250 g/ha, evaluated after 13 days, scale 100 = total damage to plant, 0 = no damage; for pest or weed control at 250 g/ha: Avena fatua, 312 h
Summary of the method: (§1)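 Seeds were sown in standard soil in pots and sprayed one day after sowing (pre-emergence) or after 8 days' growth (post-emergence). The spray was an aqueous solution from the active ingredient formulated in acetone/water (50:50) with 0.5% Tween 20. Plants grew at 24/16° C. day/night, 14 h light, 65% humidity, watered twice daily. Damage was scored after 13 days on a scale from 0 (no damage) to total damage.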

[2] = system: Echinochloa crus-galli (ECHCG); assay: Pre-emergence herbicidal glasshouse test, Echinochloa crus-galli; conditions: rate 250 g/ha, evaluated after 13 days, scale 100 = total damage to plant, 0 = no damage; for pest or weed control at 250 g/ha: Echinochloa crus-galli, 312 h
Summary of the method: as §1

[3] = system: Setaria faberi (SETFA); assay: Pre-emergence herbicidal glasshouse test, Setaria faberi; conditions: rate 250 g/ha, evaluated after 13 days, scale 100 = total damage to plant, 0 = no damage; for pest or weed control at 250 g/ha: Setaria faberi, 312 h
Description: (§2) Seeds of a variety of test species were sown in standard soil in pots. After cultivation for one day (pre-emergence) or after 8 days cultivation (post-emergence) under controlled conditions in a glasshouse (at 24/16° C., day/night; 14 hours light; 65% humidity), the plants were sprayed with an aqueous spray solution derived from the formulation of the technical active ingredient in acetone/water (50:50) solution containing 0.5% Tween 20 (polyoxyethelyene sorbitan monolaurate, CAS RN 9005-64-5). The test plants were then grown in a glasshouse under controlled conditions in a glasshouse (at 24/16° C., day/night; 14 hours light; 65% humidity) and watered twice daily. After 13 days for pre and post-emergence, the test was evaluated ([…] to plant; 0=no damage to plant).
(§3) Setaria faberi (SETFA), Lolium perenne (LOLPE), Alopecurus myosuroides (ALOMY), Echinochloa crus-galli (ECHCG) and Avena fatua (AVEFA).

[4] = system: Alopecurus myosuroides (ALOMY); assay: Pre-emergence herbicidal glasshouse test, Alopecurus myosuroides; conditions: rate 250 g/ha, evaluated after 13 days, scale 100 = total damage to plant, 0 = no damage; for pest or weed control at 250 g/ha: Alopecurus myosuroides, 312 h
Summary of the method: as §1

[5] = system: Alopecurus myosuroides (ALOMY); assay: Post-emergence herbicidal glasshouse test, Alopecurus myosuroides; conditions: rate 250 g/ha, evaluated after 13 days, scale 100 = total damage to plant, 0 = no damage; for pest or weed control at 250 g/ha: Alopecurus myosuroides, 312 h
Summary of the method: as §1

[6] = system: Setaria faberi (SETFA); assay: Post-emergence herbicidal glasshouse test, Setaria faberi; conditions: rate 250 g/ha, evaluated after 13 days, scale 100 = total damage to plant, 0 = no damage; for pest or weed control at 250 g/ha: Setaria faberi, 312 h
Description: as §2, §3

[7] = system: Avena fatua (AVEFA); assay: Post-emergence herbicidal glasshouse test, Avena fatua; conditions: rate 250 g/ha, evaluated after 13 days, scale 100 = total damage to plant, 0 = no damage; for pest or weed control at 250 g/ha: Avena fatua, 312 h
Summary of the method: as §1

[8] = system: Echinochloa crus-galli (ECHCG); assay: Post-emergence herbicidal glasshouse test, Echinochloa crus-galli; conditions: rate 250 g/ha, evaluated after 13 days, scale 100 = total damage to plant, 0 = no damage; for pest or weed control at 250 g/ha: Echinochloa crus-galli, 312 h
Summary of the method: as §1

| SMILES | pest or weed control at 250 g/ha [1] [%] | pest or weed control at 250 g/ha [2] [%] | pest or weed control at 250 g/ha [3] [%] | pest or weed control at 250 g/ha [4] [%] | pest or weed control at 250 g/ha [5] [%] | pest or weed control at 250 g/ha [6] [%] | pest or weed control at 250 g/ha [7] [%] | pest or weed control at 250 g/ha [8] [%] | damage to plant SETFA, pre-emergence activity [3] | damage to plant ALOMY, pre-emergence activity [4] | damage to plant AVEFA, pre-emergence activity [1] | damage to plant ECHCG, pre-emergence activity [2] | damage to plant ALOMY, post-emergence activity [5] | damage to plant SETFA, post-emergence activity [6] | damage to plant AVEFA, post-emergence activity [7] | damage to plant ECHCG, post-emergence activity [8] |
| --- | --- | --- | --- | --- | --- | --- | --- | --- | --- | --- | --- | --- | --- | --- | --- | --- |
| CCc1cc(-c2ccc(C)cc2)cc(CC)c1C1=C(O)[C@@]2(C)CC[C@H](O2)C1=O (racemic) [Compound A-12] | 20 | 70 | 80 | 30 | 70 | 100 | 0 | 100 | – | – | – | – | – | – | – | – |
| CCc1cc(-c2ccc(Cl)c(F)c2)ccc1C1=C(O)[C@@]2(C)CC[C@H](O2)C1=O (racemic) [Compound A-24] | 60 | 100 | 90 | 70 | 90 | 100 | 80 | 100 | – | – | – | – | – | – | – | – |
| CCc1cc(-c2c(F)cc(Cl)cc2F)ccc1C1=C(O)[C@@]2(C)CC[C@H](O2)C1=O (racemic) [Compound A-27] | 0 | 40 | 30 | 20 | 90 | 100 | 70 | 100 | – | – | – | – | – | – | – | – |
| CCc1cc(-c2ccc(Cl)c(F)c2Cl)ccc1C1=C(O)[C@@]2(C)CC[C@H](O2)C1=O (racemic) [Compound A-29] | 50 | 40 | 50 | 30 | 90 | 100 | 60 | 100 | – | – | – | – | – | – | – | – |
| CCc1cc(-c2ccc(Cl)c(F)c2F)ccc1C1=C(O)[C@@]2(C)CC[C@H](O2)C1=O (racemic) [Compound A-30] | 0 | 0 | 0 | 0 | 30 | 90 | 0 | 50 | – | – | – | – | – | – | – | – |
| CCc1cc(-c2ccc(Cl)c(Cl)c2F)ccc1C1=C(O)[C@@]2(C)CC[C@H](O2)C1=O (racemic) [Compound A-31] | 30 | 50 | 60 | 30 | 90 | 100 | 40 | 100 | – | – | – | – | – | – | – | – |
| CCc1cc(-c2ccc(Cl)cc2)ccc1C1=C(OC(C)=O)[C@@H]2CC[C@@](C)(O2)C1=O (racemic) [Compound D-1] | 40 | 70 | 80 | 60 | 90 | 100 | 80 | 100 | – | – | – | – | – | – | – | – |
| Cc1cc(-c2ccccc2)cc(C)c1C1=C(O)C(C)(C)OC(C)(C)C1=O [Compound A-1] | 40 | 70 | 90 | 30 | 50 | 80 | 0 | 100 | – | – | – | – | – | – | – | – |
| Cc1cc(-c2ccccc2)cc(C)c1C1=C(O)[C@@]2(C)C=C[C@H](O2)C1=O [Compound A-2] | 20 | 70 | – | – | 90 | 80 | 0 | 100 | 60 | 50 | – | – | – | – | – | – |
| Cc1cc(-c2ccccc2)cc(C)c1C1=C(O)[C@@]2(C)C=C[C@H](O2)C1=O [Compound A-3] | – | – | – | – | – | – | – | – | 90 | 0 | 20 | 70 | 70 | 100 | 0 | 100 |
| CCc1cc(-c2ccc(Cl)cc2)ccc1C1=C(O)[C@@]2(C)C=C[C@H](O2)C1=O [Compound A-7] | 0 | 0 | 0 | 0 | 60 | 100 | 30 | 100 | – | – | – | – | – | – | – | – |
| CCc1cc(-c2cc(Cl)cc(Cl)c2)ccc1C1=C(O)[C@@]2(C)CC[C@H](O2)C1=O [Compound A-15] | 40 | 30 | 40 | 0 | 100 | 100 | 80 | 100 | – | – | – | – | – | – | – | – |
| CCc1cc(-c2ccc(Cl)cc2C)ccc1C1=C(O)[C@@]2(C)CC[C@H](O2)C1=O [Compound A-16] | 0 | 0 | 50 | 0 | 90 | 80 | 0 | 20 | – | – | – | – | – | – | – | – |
| CCc1cc(-c2ccc(Cl)c(Cl)c2)ccc1C1=C(O)[C@@]2(C)CC[C@H](O2)C1=O [Compound A-17] | 80 | 100 | 100 | 30 | 100 | 100 | 100 | 100 | – | – | – | – | – | – | – | – |
| CCc1cc(-c2ccc(F)cc2)ccc1C1=C(O)[C@@]2(C)CC[C@H](O2)C1=O [Compound A-18] | 70 | 100 | 100 | 90 | 100 | 100 | 90 | 100 | – | – | – | – | – | – | – | – |
| CCc1cc(-c2ccc(Cl)c(C)c2)ccc1C1=C(O)[C@@]2(C)CC[C@H](O2)C1=O [Compound A-19] | 30 | 80 | 0 | 0 | 90 | 80 | 60 | 90 | – | – | – | – | – | – | – | – |
| CCc1cc(-c2ccc(Cl)c(OC)c2)ccc1C1=C(O)[C@@]2(C)CC[C@H](O2)C1=O [Compound A-20] | 40 | 70 | 80 | 70 | 90 | 90 | 70 | 100 | – | – | – | – | – | – | – | – |
| CCc1cc(-c2ccc(Cl)c(C(F)(F)F)c2)ccc1C1=C(O)[C@@]2(C)CC[C@H](O2)C1=O [Compound A-22] | 50 | 40 | 50 | 0 | 100 | 100 | 70 | 90 | – | – | – | – | – | – | – | – |
| CCc1cc(-c2ccc(Cl)s2)ccc1C1=C(O)[C@@]2(C)CC[C@H](O2)C1=O [Compound A-23] | 40 | 50 | 60 | 60 | 90 | 80 | 30 | 100 | – | – | – | – | – | – | – | – |
| CCc1cc(-c2ccc(Cl)nc2)ccc1C1=C(O)[C@@]2(C)CC[C@H](O2)C1=O [Compound A-25] | 20 | 50 | 90 | 30 | 90 | 100 | 60 | 100 | – | – | – | – | – | – | – | – |
